In US20200085828A1, “PHOSPHODIESTERASE INHIBITORS AND METHODS OF MICROBIAL TREATMENT” (Mavupharma, Inc., priority 2016, published 2020):

Key:
[1] = system: cGAMP activated THP-1 cells; assay: PDE inhibitor library screen on cGAMP activated THP-1 cells, IFNβ ELISA; assay type: cell-based, human; conditions: 10 μM compound, suboptimal 2′,3′-cGAMP, 24 hours
Experimental: THP-1 Cell Activation and Screening of Test Compounds: • (a) THP-1 cells from bulk cultures were counted and suspended in RPMI 1640, 20% FBS, 2.5 mM L-alanyl-L-glutamine at a concentration of 5.5×10^6 cells/mL. The THP-1 cells were subsequently seeded into 96 well round bottom plates—volume of 180 μL/well (1×10^6 cells per well), and the plate was incubated for 1 hour at 37° C., 5% CO2. • (b) Test compounds comprising known phosphodiesterase inhibitors (PDEs), were screened in triplicate (N1, N2, N3) on THP-1 cells. For compound screening, test compounds were assayed at a final concentration of 10 μM. A 200 μM (0.2 mM) working solution of each compound was prepared by diluting 10 mM DMSO stock solutions of each compound in media at a dilution of 50:1 (1640, 20% FBS, 2.5 mM L-alanyl-L-glutamine). […]
(i) Cell culture supernatants were harvested by centrifuging the plates at 200×g for 10 minutes. Cell culture supernatants were then transferred to a clean plate and stored at −80° C. until ready to analyze for IFNβ levels. • (j) IFNβ levels in cell culture supernatants were determined by ELISA according to the manufacturer's instructions (VeriKine Human IFNβ Assay). • (k) The interpolated data was normalized to vehicle control, or unstimulated control, and analyzed.

human recombinant ENPP1 [2] = biological target: T1, human recombinant ENPP1 (Homo sapiens, UniProt P22413); assay: ENPP1 inhibition with 2′,3′-cGAMP substrate (AMP-Glo assay); assay type: biochemical; conditions: for inhibition at 1 µM: at 1 μM compound; for inhibition at 1 µM / inhibition at 10 µM: read-out: Inhibition of ENPP1 with cGAMP as the Substrate; for inhibition at 10 µM: at 10 μM compound; for Ki: 20 μM 2′3′cGAMP, Ki from IC50 by Cheng-Prusoff, Km 15 μM
T1 sequence (P22413 1-925): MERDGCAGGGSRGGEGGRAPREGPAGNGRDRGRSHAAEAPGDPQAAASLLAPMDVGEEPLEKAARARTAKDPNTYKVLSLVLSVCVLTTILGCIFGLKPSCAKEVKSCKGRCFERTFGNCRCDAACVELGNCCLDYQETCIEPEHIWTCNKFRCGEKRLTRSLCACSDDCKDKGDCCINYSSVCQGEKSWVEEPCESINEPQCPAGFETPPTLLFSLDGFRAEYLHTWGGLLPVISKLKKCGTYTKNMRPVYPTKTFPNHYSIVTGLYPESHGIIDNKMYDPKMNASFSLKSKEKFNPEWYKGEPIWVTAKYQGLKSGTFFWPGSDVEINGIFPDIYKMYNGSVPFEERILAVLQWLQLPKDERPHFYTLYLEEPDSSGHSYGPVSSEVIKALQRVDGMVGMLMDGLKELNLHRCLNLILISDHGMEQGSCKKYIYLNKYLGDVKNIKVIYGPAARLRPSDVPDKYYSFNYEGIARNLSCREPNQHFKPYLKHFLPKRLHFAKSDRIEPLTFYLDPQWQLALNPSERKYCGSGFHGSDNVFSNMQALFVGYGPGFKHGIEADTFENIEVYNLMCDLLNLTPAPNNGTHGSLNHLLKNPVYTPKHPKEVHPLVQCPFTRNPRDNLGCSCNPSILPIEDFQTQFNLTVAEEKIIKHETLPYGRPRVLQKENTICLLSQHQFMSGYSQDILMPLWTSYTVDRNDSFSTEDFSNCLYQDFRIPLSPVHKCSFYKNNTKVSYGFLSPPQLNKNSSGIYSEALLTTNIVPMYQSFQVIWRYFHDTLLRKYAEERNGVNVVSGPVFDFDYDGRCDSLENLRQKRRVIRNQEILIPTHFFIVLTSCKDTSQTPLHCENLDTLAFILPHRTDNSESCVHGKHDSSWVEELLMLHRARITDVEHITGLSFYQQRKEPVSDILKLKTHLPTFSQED
Experimental: The AMP-Glo™ Assay Kit contains two reagents that are added sequentially. The first converts the 5′-AMP produced in the reaction to 5′ADP. The second converts the 5′-ADP to 5′ATP and reacts the 5′-ATP with the luciferase/luciferin pair to produce the luminescence signal. […] Inhibitors are added at final concentrations ranging between 10 μM and 30 pM depending on the compound. Duplicate wells are run at each inhibitor concentration. The final assay volume is 18 μL and human recombinant ENPP1 is present at 5 ng/well. The assay is initiated by the addition of substrate (20 μM 2′3′cGAMP final concentration), and incubated for 30 minutes at 37° C. To stop the reaction, 12 μl of AMP-Glo reagent I is added and the plate is incubated for 60 minutes at room temperature. 25 μl of AMP-detection reagent is then added and the wells are again incubated for 60 minutes at room temperature. The luminescence signal is then measured using a plate-reading luminometer. Each assay plate also includes wells with no enzyme added (MIN OD) and wells with no inhibitor added (MAX OD). The percent inhibition of ENPP1 for each sample is then calculated as: […]
IC50 values of compounds were calculated by entering the percent inhibition values into a sigmoidal variable slope nonlinear regression model in GraphPad Prism® software. IC50 values were converted to Ki values using the Cheng-Prusoff equation2 where the Km was 15 μM, based on internal determinations.

human recombinant ENPP1 [3] = biological target: T1, human recombinant ENPP1; assay: ENPP1 inhibition with AMP-pNP (ATP analog) substrate, absorbance at 405 nm; assay type: biochemical; conditions: 300 μM AMP-pNP; Ki from IC50 by Cheng-Prusoff, Km 151 μM
Experimental: The ENPP1 assay with AMP-pNP substrate is conducted in a buffer containing 50 mM Tris-HCl (pH 8.5)/250 mM NaCl/0.5 mM CaCl2/1 μM ZnCl2/0.1% DMSO. Inhibitors are added at final concentrations ranging between 10 μM and 30 pM depending on the compound. Duplicate wells are run at each inhibitor concentration. The final assay volume is 40 μL and human recombinant ENPP1 is present at 60 ng/well. The assay is initiated by the addition of substrate (300 μM AMP-pNP final concentration), and incubated for 20 minutes at 37° C. […] Each assay plate also includes wells with no enzyme added (MIN OD) and wells with no inhibitor added (MAX OD). The percent inhibition of ENPP1 for each sample is then calculated as: […]
IC50 values of compounds were calculated by entering the percent inhibition values into a sigmoidal variable slope nonlinear regression model in GraphPad Prism® software.

In the case of O=c1cc(-c2ccc(O)c(O)c2)oc2cc(O)cc(O)c12 [Compound 1], the “augmentation of cGAMP mediated IFNβ production” value [1] is reported as “augmentation of cGAMP mediated IFNβ production”.
For COc1ccc(NC(=O)CSc2nc3c(N)ncnc3[nH]2)cc1OC [Compound 2], the inhibition at 1 µM (human recombinant ENPP1 [2]) was 99% and the inhibition at 10 µM (human recombinant ENPP1 [2]) was 99%.
For COc1cc2ncnc(N3CCC(CCNS(N)(=O)=O)CC3)c2cc1OC [Compound 3], the inhibition at 1 µM (human recombinant ENPP1 [2]) was 99%, the inhibition at 10 µM (human recombinant ENPP1 [2]) was 99% and the “augmentation of cGAMP mediated IFNβ production” value [1] was “augmentation of cGAMP mediated IFNβ production”.
With COc1ccc(CC(=O)CCC2=Nc3c(N)ccnc3C2)cc1OC [Compound 4] the “Substrate Selectivity Ki Ratio AMP-pNP/2′3′cGAMP” value (human recombinant ENPP1 [2]; Ki (AMP-pNP)/Ki (2′3′-cGAMP)) was greater than 37500 and the “selectivity for inhibition of cGAMP over AMP-pNP hydrolysis by ENPP1” value (human recombinant ENPP1 [2]; Ki (AMP-pNP)/Ki (2′3′-cGAMP)) was > 37,500 fold.
COc1cc2ncnc(N3CCC(CCN)CC3)c2cc1OC [Compound 5] showed a Ki (human recombinant ENPP1 [2]) of 46.7 nM.
COc1cc2nccc(Oc3ccc(CS(N)(=O)=O)cc3)c2cc1OC [Compound 6] was tested, and the “Substrate Selectivity Ki Ratio AMP-pNP/2′3′cGAMP” value (human recombinant ENPP1 [2]; Ki (AMP-pNP)/Ki (2′3′-cGAMP)) was greater than 325.
With Cn1cnc2cccc(N3CCC(CCCS(C)(=O)=O)CC3)c21 [Compound 9] the “Substrate Selectivity Ki Ratio AMP-pNP/2′3′cGAMP” value (human recombinant ENPP1 [2]; Ki (AMP-pNP)/Ki (2′3′-cGAMP)) was greater than 128.
In the case of CCN(C)S(=O)(=O)NCCC1CCN(c2ncnc3cc(OC)c(OC)cc23)CC1 [Compound 12], the Ki (human recombinant ENPP1 [2]) is reported as 336 nM.
In the case of COc1cc2nccc(Nc3ccc(NS(=O)(=O)c4ccccc4)cc3)c2cc1OC [Compound 14], the Ki (human recombinant ENPP1 [2]) is reported as 29.1 nM and the Ki (human recombinant ENPP1 [3]) is reported as 1830 nM.
Work on COc1cc2ncn(-c3ccc(CNS(N)(=O)=O)cc3)c2cc1OC [Compound 16] yielded a Ki (human recombinant ENPP1 [2]) of 27.1 nM and a Ki (human recombinant ENPP1 [3]) of 1460 nM.
For COc1cc2ncnc(-c3ccc4c(c3)CN(S(N)(=O)=O)CC4)c2cc1OC [Compound 21], the Ki (human recombinant ENPP1 [2]) was 1.8 nM and the Ki (human recombinant ENPP1 [3]) was 65.2 nM.
In the case of COc1cc2nc(-c3cccnc3)nc(N3CCC(CCNS(C)(=O)=O)CC3)c2cc1OC [Compound 23], the “Substrate Selectivity Ki Ratio AMP-pNP/2′3′cGAMP” value (human recombinant ENPP1 [2]; Ki (AMP-pNP)/Ki (2′3′-cGAMP)) is reported as greater than 23.9.
COc1cc2ncnc(N3CCC4(CC3)CN(S(N)(=O)=O)C4)c2cc1OC [Compound 24] was tested, and the “Substrate Selectivity Ki Ratio AMP-pNP/2′3′cGAMP” value (human recombinant ENPP1 [2]; Ki (AMP-pNP)/Ki (2′3′-cGAMP)) was 18.7.
Molecule COc1cc2nccc(Oc3ccc(NS(=O)(=O)c4ccccc4)cc3)c2cc1OC [Compound 25] has a Ki (human recombinant ENPP1 [2]) of 44 nM.
